From PubChem BioAssay AID248 (DTP/NCI, 2004)
Several values for one entry are separate records, joined by “and”; a condition that tells them apart may be missing. Equal entries are not always repeated. Inconclusive results and toxic doses are left out.

Tested on: L1210 leukemia ip in BDF1 mice, survival T/C
Assay: NCI In Vivo Anticancer Drug Screen. Data for tumor model L1210 Leukemia (intraperitoneal) in B6D2F1 (BDF1) mice
Settings: higher = longer survival
In short: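 Tumor was transplanted into mice, which were then dosed with test compound or vehicle alone. Survival was recorded for each group, and the treated figure was expressed relative to the control figure.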

[1] = endpoint: mean survival time, dose: 100.0 mg/kg/injection, schedule: Q04DX003 (ip), vehicle: Klucel (hydroxypropylcellulose) (HPC)
[2] = endpoint: mean survival time, dose: 200.0 mg/kg/injection, schedule: Q04DX003 (ip), vehicle: Klucel (hydroxypropylcellulose) (HPC)
[3] = endpoint: mean survival time, dose: 400.0 mg/kg/injection, schedule: Q04DX003 (ip), vehicle: Klucel (hydroxypropylcellulose) (HPC)
[4] = endpoint: mean survival time, dose: 100.0 mg/kg/injection, schedule: Q01DX009 (ip), vehicle: Klucel (hydroxypropylcellulose) (HPC)
[5] = endpoint: mean survival time, dose: 200.0 mg/kg/injection, schedule: Q01DX009 (ip), vehicle: Klucel (hydroxypropylcellulose) (HPC)
[6] = endpoint: mean survival time, dose: 400.0 mg/kg/injection, schedule: Q01DX009 (ip), vehicle: Klucel (hydroxypropylcellulose) (HPC)
[7] = endpoint: mean survival time, dose: 75.0 mg/kg/injection, schedule: Q01DX001 (ip), vehicle: carboxymethylcellulose (CMC)
[8] = endpoint: mean survival time, dose: 150.0 mg/kg/injection, schedule: Q01DX001 (ip), vehicle: carboxymethylcellulose (CMC)
[9] = endpoint: mean survival time, dose: 300.0 mg/kg/injection, schedule: Q01DX001 (ip), vehicle: carboxymethylcellulose (CMC)
[10] = endpoint: mean survival time, dose: 100.0 mg/kg/injection, schedule: Q04DX003 (ip), vehicle: saline with Tween-80
[11] = endpoint: mean survival time, dose: 200.0 mg/kg/injection, schedule: Q04DX003 (ip), vehicle: saline with Tween-80
[12] = endpoint: mean survival time, dose: 400.0 mg/kg/injection, schedule: Q04DX003 (ip), vehicle: saline with Tween-80

SMILES: Cn1c(N)nc2nc[nH]c2c1=S
- T/C (endpoint: mean survival time, dose: 0.25 mg/kg/injection, schedule: Q01DX Z (ip), vehicle: carboxymethylcellulose (CMC)): 104 % of control
- T/C (endpoint: mean survival time, dose: 0.5 mg/kg/injection, schedule: Q01DX Z (ip), vehicle: carboxymethylcellulose (CMC)): 101 % of control
- T/C (endpoint: mean survival time, dose: 1.0 mg/kg/injection, schedule: Q01DX Z (ip), vehicle: carboxymethylcellulose (CMC)): 104 % of control
- T/C (endpoint: mean survival time, dose: 2.0 mg/kg/injection, schedule: Q01DX015 (ip), vehicle: carboxymethylcellulose (CMC)): 103 % of control
- T/C (endpoint: mean survival time, dose: 2.0 mg/kg/injection, schedule: Q01DX Z (ip), vehicle: carboxymethylcellulose (CMC)): 107 % of control
- T/C (endpoint: mean survival time, dose: 2.5 mg/kg/injection, schedule: Q01DX010 (ip), vehicle: saline): 95 % of control and 91 % of control
- T/C (endpoint: mean survival time, dose: 2.7 mg/kg/injection, schedule: Q01DX Z (ip), vehicle: methylcellulose (MC)): 159 % of control
- T/C (endpoint: mean survival time, dose: 4.0 mg/kg/injection, schedule: Q01DX015 (ip), vehicle: carboxymethylcellulose (CMC)): 92 % of control
- T/C (endpoint: mean survival time, dose: 4.0 mg/kg/injection, schedule: Q01DX Z (ip), vehicle: carboxymethylcellulose (CMC)): 97 % of control and 106 % of control
- T/C (endpoint: mean survival time, dose: 4.0 mg/kg/injection, schedule: Q01DX Z (ip), vehicle: methylcellulose (MC)): 150 % of control
- T/C (endpoint: mean survival time, dose: 5.0 mg/kg/injection, schedule: Q01DX009 (ip), vehicle: saline): 101 % of control and 106 % of control
- T/C (endpoint: mean survival time, dose: 5.0 mg/kg/injection, schedule: Q01DX010 (ip), vehicle: saline): 97 % of control and 101 % of control
- T/C (endpoint: mean survival time, dose: 6.0 mg/kg/injection, schedule: Q01DX Z (ip), vehicle: methylcellulose (MC)): 123 % of control
- T/C (endpoint: mean survival time, dose: 8.0 mg/kg/injection, schedule: Q01DX015 (ip), vehicle: carboxymethylcellulose (CMC)): 107 % of control
- T/C (endpoint: mean survival time, dose: 8.0 mg/kg/injection, schedule: Q01DX Z (ip), vehicle: carboxymethylcellulose (CMC)): 118 % of control
- T/C (endpoint: mean survival time, dose: 10.0 mg/kg/injection, schedule: Q01DX009 (ip), vehicle: saline): 101 % of control and 104 % of control
- T/C (endpoint: mean survival time, dose: 10.0 mg/kg/injection, schedule: Q01DX010 (ip), vehicle: saline): 100 % of control and 91 % of control
- T/C (endpoint: mean survival time, dose: 16.0 mg/kg/injection, schedule: Q01DX015 (ip), vehicle: carboxymethylcellulose (CMC)): 104 % of control and 116 % of control
- T/C (endpoint: mean survival time, dose: 16.0 mg/kg/injection, schedule: Q01DX Z (ip), vehicle: carboxymethylcellulose (CMC)): 110 % of control
- T/C (endpoint: mean survival time, dose: 20.0 mg/kg/injection, schedule: Q01DX009 (ip), vehicle: saline): 106 % of control and 113 % of control
- T/C (endpoint: mean survival time, dose: 20.0 mg/kg/injection, schedule: Q01DX010 (ip), vehicle: saline): 94 % of control and 95 % of control and 116 % of control
- T/C (endpoint: mean survival time, dose: 32.0 mg/kg/injection, schedule: Q01DX015 (ip), vehicle: carboxymethylcellulose (CMC)): 123 % of control
- T/C (endpoint: mean survival time, dose: 40.0 mg/kg/injection, schedule: Q01DX009 (ip), vehicle: saline): 119 % of control
- T/C (endpoint: mean survival time, dose: 40.0 mg/kg/injection, schedule: Q01DX010 (ip), vehicle: saline): 97 % of control
- T/C (endpoint: mean survival time, dose: 64.0 mg/kg/injection, schedule: Q01DX010 (iv), vehicle: saline): 102 % of control
- T/C (endpoint: mean survival time, dose: 64.0 mg/kg/injection, schedule: Q01DX015 (ip), vehicle: carboxymethylcellulose (CMC)): 123 % of control
- T/C (endpoint: mean survival time, dose: 80.0 mg/kg/injection, schedule: Q01DX010 (ip), vehicle: saline): 97 % of control
- T/C (endpoint: mean survival time, dose: 128.0 mg/kg/injection, schedule: Q01DX010 (iv), vehicle: saline): 100 % of control
- T/C (endpoint: mean survival time, dose: 128.0 mg/kg/injection, schedule: Q01DX015 (ip), vehicle: carboxymethylcellulose (CMC)): 115 % of control
- T/C (endpoint: mean survival time, dose: 256.0 mg/kg/injection, schedule: Q01DX010 (iv), vehicle: saline): 108 % of control
- T/C (endpoint: median survival time, dose: 5.0 mg/kg/injection, schedule: Q01DX009 (ip), vehicle: saline): 105 % of control and 106 % of control
- T/C (endpoint: median survival time, dose: 10.0 mg/kg/injection, schedule: Q01DX009 (ip), vehicle: saline): 110 % of control
- T/C (endpoint: median survival time, dose: 20.0 mg/kg/injection, schedule: Q01DX009 (ip), vehicle: saline): 110 % of control and 112 % of control
- T/C (endpoint: median survival time, dose: 40.0 mg/kg/injection, schedule: Q01DX009 (ip), vehicle: saline): 120 % of control

SMILES: CCn1cc(C(=O)O)c(=O)c2ccc(C)nc21
- T/C [1]: 97 % of control
- T/C [2]: 96 % of control
- T/C [3]: 94 % of control

SMILES: CN(C)C(=N)[Se]
- T/C (endpoint: mean survival time, dose: 6.25 mg/kg/injection, schedule: Q01DX009 (ip), vehicle: saline): 97 % of control
- T/C (endpoint: mean survival time, dose: 12.5 mg/kg/injection, schedule: Q01DX009 (ip), vehicle: saline): 92 % of control

SMILES: C[N+]1=C(/C=C\c2ccc3cccnc3c2O)C(C)(C)c2cc(F)ccc21
- T/C (endpoint: mean survival time, dose: 100.0 mg/kg/injection, schedule: Q01DX001 (ip), vehicle: carboxymethylcellulose (CMC)): 93 % of control
- T/C (endpoint: mean survival time, dose: 200.0 mg/kg/injection, schedule: Q01DX001 (ip), vehicle: carboxymethylcellulose (CMC)): 95 % of control
- T/C (endpoint: mean survival time, dose: 400.0 mg/kg/injection, schedule: Q01DX001 (ip), vehicle: carboxymethylcellulose (CMC)): 88 % of control

SMILES: CCCCCCCCCCCCCCC(=O)c1ccccc1
- T/C [4]: 100 % of control
- T/C [1]: 105 % of control
- T/C [5]: 102 % of control
- T/C [2]: 102 % of control
- T/C [6]: 95 % of control
- T/C [3]: 104 % of control

SMILES: CSC(=S)NC#N
- T/C (endpoint: mean survival time, dose: 50.0 mg/kg/injection, schedule: Q01DX009 (ip), vehicle: saline): 93 % of control
- T/C (endpoint: mean survival time, dose: 100.0 mg/kg/injection, schedule: Q01DX009 (ip), vehicle: saline): 93 % of control
- T/C (endpoint: mean survival time, dose: 100.0 mg/kg/injection, schedule: Q04DX003 (ip), vehicle: saline): 101 % of control
- T/C (endpoint: mean survival time, dose: 200.0 mg/kg/injection, schedule: Q01DX009 (ip), vehicle: saline): 89 % of control
- T/C (endpoint: mean survival time, dose: 200.0 mg/kg/injection, schedule: Q04DX003 (ip), vehicle: saline): 106 % of control
- T/C (endpoint: mean survival time, dose: 400.0 mg/kg/injection, schedule: Q04DX003 (ip), vehicle: saline): 98 % of control

SMILES: CCCCCCCCCCCCCCCCOc1ccccc1/C=C/C(=O)O
- T/C [1]: 91 % of control
- T/C [2]: 88 % of control
- T/C [3]: 95 % of control

SMILES: CCCNCCC[P+](c1ccccc1)(c1ccccc1)c1ccccc1
- T/C (endpoint: mean survival time, dose: 25.0 mg/kg/injection, schedule: Q04DX002 (ip), vehicle: saline): 102 % of control
- T/C (endpoint: mean survival time, dose: 50.0 mg/kg/injection, schedule: Q04DX002 (ip), vehicle: saline): 98 % of control
- T/C (endpoint: mean survival time, dose: 100.0 mg/kg/injection, schedule: Q04DX002 (ip), vehicle: saline): 98 % of control and 91 % of control

SMILES: O=C(c1ccccc1)C(Nc1ccccn1)c1ccccc1 (centres undefined)
- T/C [7]: 96 % of control
- T/C [8]: 94 % of control
- T/C [9]: 94 % of control

SMILES: COc1ccc(OC)c(-n2cccc2)c1
- T/C (endpoint: mean survival time, dose: 100.0 mg/kg/injection, schedule: Q04DX002 (ip), vehicle: saline with Tween-80): 87 % of control
- T/C (endpoint: mean survival time, dose: 200.0 mg/kg/injection, schedule: Q04DX002 (ip), vehicle: saline with Tween-80): 103 % of control
- T/C (endpoint: mean survival time, dose: 400.0 mg/kg/injection, schedule: Q04DX002 (ip), vehicle: saline with Tween-80): 94 % of control

SMILES: O=C1C2CCCCC2C(=O)N1C1=NC=NC2=NC=NC21 (centres undefined)
- T/C [10]: 98 % of control
- T/C [11]: 101 % of control
- T/C [12]: 95 % of control

SMILES: COc1ccc(C(=O)CCN2CCC(O)(c3ccccc3)CC2)cc1
- T/C (endpoint: mean survival time, dose: 12.5 mg/kg/injection, schedule: Q04DX003 (ip), vehicle: saline with Tween-80): 100 % of control
- T/C (endpoint: mean survival time, dose: 25.0 mg/kg/injection, schedule: Q04DX003 (ip), vehicle: saline with Tween-80): 92 % of control
- T/C (endpoint: mean survival time, dose: 50.0 mg/kg/injection, schedule: Q04DX003 (ip), vehicle: saline with Tween-80): 96 % of control

SMILES: CCCCC(CC)(CO)CO
- T/C [10]: 110 % of control
- T/C [11]: 100 % of control
- T/C [12]: 111 % of control

SMILES: CC(=O)Nc1ccc(/C=N/Nc2ccccc2)cc1
- T/C [4]: 101 % of control
- T/C [5]: 103 % of control
- T/C [6]: 101 % of control

SMILES: O=S1(=O)C(c2ccccc2)C(N2CCCCC2)C1C1CC2c3ccccc3C1c1ccccc12 (centres undefined)
- T/C [7]: 91 % of control
- T/C [8]: 91 % of control
- T/C [9]: 86 % of control

SMILES: CN(CCNC(=O)Nc1ccccc1)c1ccccc1
- T/C [4]: 101 % of control
- T/C [5]: 97 % of control
- T/C [6]: 105 % of control
